Structures are written as SMILES. In brackets after ≈: the same amount, converted by molar mass. Activity calls are given as the source filed them. No cut-off for these calls is given here.

In data set [1] the target is T1, Bifunctional epoxide hydrolase 2 (Rattus norvegicus, UniProt P80299).
T1 sequence (P80299 whole entry): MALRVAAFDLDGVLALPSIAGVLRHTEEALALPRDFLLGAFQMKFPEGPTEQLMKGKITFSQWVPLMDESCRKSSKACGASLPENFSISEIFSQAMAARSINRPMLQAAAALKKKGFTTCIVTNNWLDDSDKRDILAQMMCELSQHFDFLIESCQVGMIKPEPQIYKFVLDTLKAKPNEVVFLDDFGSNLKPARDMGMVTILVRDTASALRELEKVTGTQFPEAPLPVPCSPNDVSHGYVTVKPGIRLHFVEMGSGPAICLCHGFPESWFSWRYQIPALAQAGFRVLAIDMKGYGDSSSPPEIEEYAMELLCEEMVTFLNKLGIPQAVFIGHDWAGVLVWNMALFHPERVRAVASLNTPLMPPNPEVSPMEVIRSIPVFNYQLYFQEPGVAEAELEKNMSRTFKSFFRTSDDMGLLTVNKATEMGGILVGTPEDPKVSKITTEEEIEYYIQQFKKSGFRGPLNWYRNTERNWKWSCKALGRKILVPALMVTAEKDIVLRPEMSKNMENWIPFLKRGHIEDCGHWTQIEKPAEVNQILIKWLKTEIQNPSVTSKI
In words: Inhibition of rat recombinant sEH expressed in baculovirus infected insect Sf9 cells using cyano(6-methoxynaphthalen-2-yl)methyl trans-[(3-phenyloxiran-2-yl)methyl] carbonate as substrate preincubated for 30 mins followed by substrate addition measured after 20 to 45 mins by fluorescence assay.

A short description of data set [2]: Solubility of the compound in simulated gastric fluid compliant with Japanese pharmacopeia. It counts as ADME.
For a further data set, the system named is Rattus norvegicus. The experiment in a line: Reduction of serum creatinine level in rat anti-glomerular basement membrane glomerulonephritis model at 30 mg/kg, po qd administered for 3 weeks. It counts as functional, organism-based. Set-up: dose 30 mg/kg.
A short description of data set [3]: Solubility of the compound in simulated intestinal fluid compliant with Japanese pharmacopeia. Format: ADME.
Data set [4] can be described thus: AUC (0 to infinity) in rat at 1 mg/kg, po. It counts as ADME, organism-based. Set-up: time infinity, dose 1 mg/kg, route oral. Conditions: plasma.
Data set [5] can be described thus: Oral bioavailability in rat at 1 mg/kg. It counts as ADME, organism-based. Conditions: in vivo.
A short description of data set [6]: Half life in rat at 0.2 mg/kg, iv. It counts as ADME, organism-based. The following applies: in vivo. Set-up: dose 0.2 mg/kg, route intravenous.
The nature of data set [7]: Volume of distribution at steady state in rat at 0.2 mg/kg, iv. Format: ADME, organism-based. Set-up: dose 0.2 mg/kg, route intravenous. Conditions: in vivo, read-out: Vdss.
The target of data set [8] is T2, Bifunctional epoxide hydrolase 2 (Homo sapiens, UniProt P34913).
T2 sequence (P34913 whole entry): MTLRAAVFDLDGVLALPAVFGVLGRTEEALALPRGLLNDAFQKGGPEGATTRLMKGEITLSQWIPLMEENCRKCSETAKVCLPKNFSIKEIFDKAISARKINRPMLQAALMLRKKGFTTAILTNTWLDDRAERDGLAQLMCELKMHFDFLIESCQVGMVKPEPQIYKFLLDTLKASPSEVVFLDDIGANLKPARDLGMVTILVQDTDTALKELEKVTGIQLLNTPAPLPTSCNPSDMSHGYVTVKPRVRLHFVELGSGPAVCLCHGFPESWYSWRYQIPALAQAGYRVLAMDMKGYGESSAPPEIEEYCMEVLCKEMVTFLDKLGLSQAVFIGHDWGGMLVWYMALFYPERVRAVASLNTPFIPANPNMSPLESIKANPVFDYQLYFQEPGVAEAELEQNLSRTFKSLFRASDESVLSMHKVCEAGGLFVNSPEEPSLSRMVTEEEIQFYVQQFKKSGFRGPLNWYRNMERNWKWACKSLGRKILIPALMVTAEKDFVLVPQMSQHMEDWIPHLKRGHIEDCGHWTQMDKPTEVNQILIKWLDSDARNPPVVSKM
The experiment in a line: Inhibition of human recombinant sEH expressed in baculovirus infected insect Sf9 cells using cyano(6-methoxynaphthalen-2-yl)methyl trans-[(3-phenyloxiran-2-yl)methyl] carbonate as substrate preincubated for 30 mins followed by substrate addition measured after 20 to 45 mins by fluorescence assay.

The nature of data set [9]: Total clearance in rat at 0.2 mg/kg, iv. Format: ADME, organism-based. Set-up: dose 0.2 mg/kg, route intravenous. Conditions: in vivo.
Data set [10] is described as follows: Tmax in rat at 1 mg/kg, po. Format: ADME, organism-based. Set-up: dose 1 mg/kg, route oral. Conditions: in vivo.
The nature of data set [11]: Drug uptake in rat at 0.2 mg/kg, iv at 5 mins. It counts as ADME, organism-based. Set-up: dose 0.2 mg/kg, route intravenous. Conditions: in vivo, read-out: Drug uptake.
A short description of data set [12]: Cmax in rat at 1 mg/kg, po. The following applies: in vivo. On the set-up: dose 1 mg/kg, route oral. Format: ADME, organism-based.
Data set [13] is described as follows: AUC (0 to infinity) in rat at 0.2 mg/kg, iv. It counts as ADME, organism-based. On the set-up: time infinity, dose 0.2 mg/kg, route intravenous. The following applies: plasma.
The next data set has as its system Liver microsome. In words: Metabolic stability in human liver microsomes measured per mg of protein. It counts as ADME. In general terms: Liver microsomes are a subcellular fraction often used to study metabolism.

Regarding `O=C(Nc1ccc(OC(F)(F)F)cc1)N1CCOC2(CCN(C(=O)c3ccccc3F)CC2)C1`, the results for the IC50 in data set [1] and in data set [8] were 9.3 nM and 1.1 nM, respectively. In addition, the solubility (commonly how much of the substance goes into solution per volume) is 71 µg/mL (≈ 147 µM) in data set [2] and 62 µg/mL (≈ 129 µM) in data set [3]. Also, the result in the data set on Rattus norvegicus was Active. In addition, the AUC(0-inf) (commonly the area under the concentration-time curve extrapolated to infinity) in [4] worked out at 306 ng·h/mL; in data set [13], 173 ng·h/mL. The bioavailability – broadly, dose-corrected exposure relative to a reference, in per cent – in [5] stood at 35.4%. Moreover, the half-life (commonly the time in which the quantity being followed falls by half) in data set [6] is 2.63 h. Further, in data set [7], the Vd was 3.56 L/kg. For the same compound, the clearance (as a rule, the rate of elimination divided by the concentration) in data set [9] is 19.3 mL/min/kg. In addition, in data set [10], the time of peak concentration (Tmax) – broadly, the time at which the peak concentration occurs – came out at 1 h. In addition, the concentration at 5 min in data set [11] was 71 ng/mL. The highest level in [12] (Cmax) was 20.4 ng/mL. The CLint with Liver microsome came out at 30 µL/min/mg.

Source of the values: ChEMBL document CHEMBL3102795, “Discovery of 1-oxa-4,9-diazaspiro[5.5]undecane-based trisubstituted urea derivatives as highly potent soluble epoxide hydrolase inhibitors and orally active drug candidates for treating of chronic kidney diseases” (Bioorg Med Chem Lett, 2014).
